According to patent publication US10946057B2, “Antiseptics” (INSIGHT HEALTH LIMITED, priority 2007, dated 2021):
In brackets after ≈: the same amount, converted by molar mass. Read-outs that look alike come from different tables or passages of the source.

Columns and labels:
[1] = tested on: S. epidermidis RP62A (planktonic cells, suspension); assay: MIC/MBC by microbroth dilution assay, S. epidermidis in suspension; format: cell-based; settings: Staphylococcus epidermidis, read-out: Minimum inhibitory concentration (MIC), planktonic cells
Experimental: Test inocula for the suspension assay were prepared by suspending 10 colonies of S. epidermidis RP62A from an overnight culture on MHA into sterile PBS. The bacterial concentration was adjusted to 1×10*8 cfu/mL by diluting the culture with sterile PBS and measuring the OD at 570 nm (calibration curve for S. epidermidis cfu against OD at 570 nm were performed prior to the study, data not shown). The suspension was further diluted with MHB to obtain inocula containing 1×10*7 cfu/mL for synergy assays or 1×10*6 cfu/ml for testing antimicrobial activity of CHG and oils alone in suspension.
(§1) Aqueous chlorhexidine digluconate (CHG), tea tree oil (TTO), eucalyptus oil (EO) and thymol (all from Sigma-Aldrich) were diluted with MHB to obtain stock solution of 512 mg/mL for essential oils and 512 μg/mL for CHG. Five percent (v/v) dimethylsulphoxide (DMSO) (Sigma-Aldrich) was added to the stocks of essential oils to enhance their solubility of the oils in suspension.
Minimum inhibitory concentration (MIC) and minimum bacterial concentration (MBC) of aqueous CHG, TTO, EO and thymol were performed by microbroth dilution assay (NCCLS, 1997). […] Minimum bactericidal concentrations were determined by removing the suspension from the clear wells into MHA, spread with a sterile spreader and incubating the plates in air at 37° C. for 18-20 hours. […]

[2] = tested on: S. epidermidis RP62A biofilm; assay: Antimicrobial activity against S. epidermidis biofilm by ATP bioluminescence; format: cell-based, Staphylococcus epidermidis; settings: for MBC/biofilm eradicating concentration / Minimum inhibitory concentration (MIC), bacteria growing in biofilm: S. epidermidis RP62A biofilm
Experimental: S. epidermidis RP62A was used for its ability to produce a biofilm (Sadovskaya, et al., 2005). Bacteria were stored on beads (MicroBank, Pro-Lab Diagnostics, Cheshire, UK) at −70° C. until required. The ability of the strain to produce slime was confirmed by culturing the bacteria on Congo Red agar (Freeman, et al., 1989). For producing the microbial biofilms, the strains were first inoculated onto Muller-Hinton agar (MHA) (Oxoid, Basingstoke, UK) and incubated in air at 37° C. for 18-20 hours. Ten colonies from the culture plate were suspended into sterile phosphate buffered saline (PBS, Sigma, Dorset, UK). The bacterial concentration was adjusted to 1×10*8 cfu/mL by diluting the culture with sterile PBS and measuring the OD at 570 nm (calibration curve for S. epidermidis cfu against OD at 570 nm were performed prior to the study, data not shown). The suspension was further diluted with Muller-Hinton broth (MHB) supplemented with 2% (w/v) glucose (Fisher Scientific, Leicester, UK) to obtain inocula containing 1×10*5 cfu/mL. Two hundred μL of the bacterial suspension were aliquoted into wells of white walled, clear bottom, tissue culture treated 96-well microtitre plate (Corning Incorporated, NY, USA). The wells in the last column of the plate served as a control, and contained 200 μL of MHB supplemented with 2% (w/v) glucose only. Microtitre plates were incubated in air at 37° C. for 48 hours.
as §1
Prior to antimicrobial susceptibility studies, a standard curve for relative light units (RLU) versus bacterial cfu/mL was performed. S. epidermidis was grown with MHB supplemented with 2% (w/v) glucose in a 96-well microtitre plate as described previously to obtain bacterial biofilms. The wells of the microtitre plate with established bacterial biofilms were washed three times with sterile PBS and biofilms were removed from the wells by using “a scrape and wash method” (Adams, 2006). In brief, each well was filled with 200 μL of sterile PBS and, with a sterile pipette tip, the wall of each well was scraped approximately 10 times and the bottom scraped horizontally, vertically and cross-wise in each direction 10 times. The suspension was removed and collected into a sterile Eppendorf tube and the procedure repeated a further 4 times to obtain a final volume of 1000 μL per tube. The procedure was performed on three wells separately. The suspensions were mixed by vortexing and serial dilutions were performed in sterile PBS. 100 μL of the neat suspension and 10^−1 to 10^−5 dilutions were aliquoted onto wells of a white-walled, clear bottom microtitre plate. 100 microlitres of bactolyse were added into each well. The plate was then floated on a water bath sonicator and the plate was sonicated at 50 Hz for 30 minutes to lyse the cells and release the bacterial ATP. Twenty μL of luciferase where added into each well and luminescence read by a luminometer. The bacterial cfu in each suspension and dilution were established by the drop count method. The results were expressed as cfu against RLU.
Microtitre plates containing S. epidermidis RP62A biofilm were washed once with sterile PBS to remove any unbound bacteria. Antimicrobial agents were diluted with MHB to obtain CHG concentrations of 128 μg/mL to 0.25 μg/mL and essential oil concentrations of 256 mg/mL to 0.5 mg/mL. Two hundred and fifty microlitres of the antimicrobial compound were added in the wells in triplicate. Columns 11 and 12 served as controls with biofilm with saline alone and clear wells with MHB alone without bacterial biofilm.

[3] = Skin permeation study CHG + eucalyptus oil, Franz diffusion cells, receptor fluid by HPLC; format: in vitro ADME; settings: 24 hour skin permeation, full thickness human skin, Franz cell
Experimental: Prior to the study full ethical committee approval and written consent from patients donating the tissue was obtained. […] Vertical diffusion cells (Franz diffusion cells), with an average diffusion surface area of 1.65 cm^2, were used for skin permeation studies. Phosphate buffered saline (PBS) was used as a receptor fluid, and left overnight in a receptor compartment (approximately volume 29 mls) with circulating water jacket set at 37° C. On the day of investigation the excised skin was thawed in PBS and cut into size to fit Franz diffusion cells (2.9 cm circle across). The skin samples were mounted into Franz diffusion cells and left for 1 hour in the diffusion cells to equilibrate with the receptor fluid prior to commencing the study. […] One millilitre of CHG solution of CHG/eucalyptus oil suspension was aliquoted in triplicate on the surface of the excised human skin on the donor compartment in Franz diffusion cells. The temperature was maintained constant by a circulating water jacket set at 37° C. and the receptor fluid was agitated continuously by magnetic stirrer bar. […] The samples were filtered and analysed by HPLC. Chlorhexidine digluconate was analysed quantitatively by HPLC. […] The samples were filtered and analysed with HPLC (Agilent 1100) with ODS-2 Hypersil column (5μ particle size) (Thermo Electron Corporation, UK) with a flow rate of 1.2 mls/min, detector wavelength 254 nm.

[4] = CHG penetration profile studies with EO and IPA (CHG extracted from skin sections); format: in vitro ADME, human
Experimental: Following exposure, the skin samples were removed, washed with PBS and dried with an absorbent towel. The skin samples were immediately sprayed with a cryospray (Bright Instruments) and frozen at -20° C. Punch biopsies (7 mm in diameter) were cut from each frozen sample in triplicate and placed onto a cork disc in embedding compound (Bright Instruments, Cambs, UK), The frozen samples were sectioned horizontally with a microtome (Bright Instruments) into 20 μm sections (from the surface to a depth of 600 μm) and 30 μm sections (from depths of 600 to 1500 μm). Each section was placed into an Eppendorf tube and the total weight of each skin sample determined. Chlorhexidine was extracted from the skin by aliquoting 1 mL of mobile phase solution (75% methanol, 25% distilled water, 0.1% sodium heptane sulphonate, 0.1% diethylamine, pH 4) into skin samples and incubated in water bath at 60° C. for 1 h. The samples were mixed by vortexing and filtered prior to analysis by HPLC. The results were calculated as μg of CHG per mg of skin. Control skin (skin without treatment) was analysed parallel to the test samples. The assay was performed in triplicate. The data obtained were analysed by a student t-test using […] software (Graph pad software version 3.06) with a p<0.05 level of significance.

[5] = Skin permeation of CHG with EO and IPA, Franz diffusion cells, receptor compartment by HPLC; settings: 24 h permeation study, skin from two donors; LOD 0.0157 μg/mL
Experimental: The full thickness human skin was frozen on the day of excision and stored at −70° C. until required.
Skin permeation studies were performed with vertical Franz diffusion cells. The receptor compartment was filled with 29 mL of PBS and maintained at 37° C. by a circulating water jacket and agitated by stirring with a magnetic bar. Skin samples were thawed in PBS at room temperature, dried with an absorbent towel and mounted onto Franz diffusion cells with the stratum corneum (SC) uppermost facing the donor compartment. The surface area exposed to the test compound was 3.14 cm2 (2 cm in diameter). All entrapped air was removed between the skin and receptor fluid and the skin was left to equilibrate for 30 min to reach the skin surface temperature of 32° C.
Twenty percent (w/v) aqueous CHG was diluted with distilled water, IPA and EO to obtain the final concentrations of 2% (w/v) CHG in 70% (v/v) IPA and 2% (w/v) CHG with 5%, 10%, 20% and 50% (v/v) EO. Tween 80 [0.1% (v/v)] was added to the test solutions to enhance EO solubility in the vehicle. One millilitre of test solution was spread over the skin surface in the donor compartment and the compartment was sealed with a moisture resistant film to prevent evaporation. […] All samples were filtered through a 0.45 μm nylon filter (Kinesis, UK) and analysed by HPLC. […]

In the case of `[H]/N=C(\N/C(=N/[H])NCCCCCCNC(=N)NC(=N)Nc1ccc(Cl)cc1)Nc1ccc(Cl)cc1` [CHG, chlorhexidine digluconate], the MIC ([1]; agent alone) is reported as 2 µg/mL, the MBC/biofilm eradicating concentration [2] is reported as 32 µg/mL and the “Minimum inhibitory concentration (MIC), bacteria growing in biofilm” value ([2]; agent alone) is reported as 8 µg/mL. The “MIC higher against bacteria growing in biofilm compared to planktonic cells” value ([2]; biofilm vs planktonic) was 2 fold, the “Levels of CHG in the receptor fluid” value [3] was “did not show detectable levels” and the “Mean concentration of CHG (and SEM) within the tissues” value ([4]; 2 min exposure, 300 to 1500 μm depths) was 0.0048 μg/mg tissue. For the same molecule, the “Mean CHG concentration (and SEM)” value ([4]; 30 min exposure, depths of 300 μm to 1500 μm) was 0.0021 (±0.0004) μg/mg tissue, the “CHG concentration extracted from the deeper layers of the skin” value ([4]; 24 h exposure, 300 to 1500 μm depths) was 0.581 (±0.0466) μg per mg tissue and the “CHG concentration extracted from the top 100 μm layer” value ([4]; 24 h exposure, top 100 μm) was 7.880 μg per mg tissue. The “Chlorhexidine in the receptor compartment” value [5] was “not detected”.
For `Cc1ccc(C(C)C)c(O)c1` [Thymol, thymol], the MIC ([1]; oil alone) was 4000 µg/mL (≈ 26.6 mM), the MBC/biofilm eradicating concentration [2] was 2000 µg/mL (≈ 13.3 mM) and the “Minimum inhibitory concentration (MIC), bacteria growing in biofilm” value ([2]; oil alone) was 1000 µg/mL (≈ 6.66 mM). The “MIC lower against biofilms compared to planktonic cells” value ([2]; biofilm vs planktonic) was 2 fold.
